Results: patent US20060211628A1 (priority 2002, published 2006)

Key:
[1] = test system: endogenous reduced glutathione (GSH); assay: In vivo antioxidation: striatum/serum endogenous GSH after IP injection of compound A; set-up: species or system Balb/c mice; conditions: injected IP, 100-300 mg/kg, three hours post injection
Protocol: With reference now to FIG. 3. To this end, three groups of two months old Balb/c mice containing two animals in each group were injected intraperitonealy (IP) with 100-300 mg/kg body weight of compound A. Blood samples were drawn from the tail three hours post injection and then the animals were sacrificed and either the corpus striatum or the whole brain were removed and analyzed for GSH levels.
GSH levels were determined using the experimental procedures as described hereinbelow and/or the GSH-400 kit (Oxis International, Inc.).
Preparation of brain homogenates: Animals were rapidly killed and exsanguinated to remove excess blood from the brain. The brain of each animal was rinsed in a beaker containing water, lightly blotted to dry and were weighted. The striatums were transferred into a hand-homogenizer tube and each was homogenized using a constant number (e.g., 20) of up and down strokes of the hand-homogenizer pestle. Each of the homogenates was poured into a centrifuge tube and centrifuged for 10,000×g for 5 min. The supernatant was used for GSH determination as follows.
GSHAssay: For each measurement, 200 μl of sample were incubated with 20 μl DTNB [5,5′ dithio bis(2-nitrobenzoic acid)] for 1 hour in 37° C. Final absorbance was measured at 400 nm. Similar results were obtained using the GSH-400 kit. […]

[2] = in vivo; cited from earlier work
[3] = test system: Neuroblastoma SHSY5Y (NB) cells; assay: Protection from oxidative stress in vitro, neutral red survival assay; format: cell-based; conditions: compound at 0.1 mM
Protocol: Protection from oxidative stress in vitro: Neuroblastoma SHSY5Y (NB) cells were maintained in Dulbeco's Modified Eagle's Medium (DMEM), supplemented with 8% FCS and 8% horse serum, penicillin (25 μg/ml), streptomycin (25 μg/ml), 2 mM L-glutamine and 400 μg/ml G418 (Gibco/BRL). For protection experiments cells were subcultured (in 2% serum) to poly-L-lysine-coated 96-well microtiter plates (Nunc), 100 μl of 5×10^5 cells/ml, CEA was applied to the cells in each well and 4 hours later DA, L-dopa (levodopa), 6-OHDA and MPP+ were added for 24 hours.
Survival was assayed by adding neutral red (0.34%, Sigma) to cells in DCCM-1 medium (0.1 ml/well, Bet-Haemek) and incubation for 2 hour at 37° C. The cells were then washed with cold PBS containing 10 mM MgCl2 and the dye was dissolved in 50% ethanol in 50% Somerson buffer (70 mM sodium citrate, 30 mM citric acid, 0.1 N HCl). ELISA reader (590 nm) was used to measure the remaining color intensity.

[4] = Crossing the blood-brain-barrier: compound J level in brain extracts by fluorescent labeling and HPLC; format: in vivo, C57BL/6J mice; conditions: IP injection 0.25-4 mg, brain extracts 15 min later
Protocol: Detection of compound j (referred to in this Example also as CEA) was established using high performance liquid chromatography (HPLC). To this end, CEA was treated with a fluorescent thiolyte reagent (monobromobimane reagent) and analyzed on an HPLC column.
Crossing the blood-brain-barrier: In vivo experiments were carried out on C57BL/6J mice (15 grams) injected IP with compound J. After incubation (15 min, 60 min or 4 hours) the mice were anesthetized with ether and blood samples were drawn. Then mice underwent perfusion with 50 ml of saline, injected into the right ventricle. The levels of compound I in the brain and in the plasma were detected by selective fluorescent labeling using high performance liquid chromatography (HPLC).
Increasing amounts of compound J were injected IP and 15 min later, mice were perfused with saline and compound J levels in the brain extracts were determined by HPLC chromatography (FIG. 5b), as compared to a control, pure, uninjected compound J (FIG. 5a).

GSH = assay: Brain GSH levels after IP injection of compound J (HPLC); format: in vivo, C57BL/6J mice; conditions: brain extract after IP injection
MOG-induced EAE = assay: Prevention of MOG-induced experimental autoimmune encephalomyelitis (EAE); format: in vivo, C3H.SW female mice; conditions: 200 mg/kg IP twice a day plus 300 mg/kg in drinking water
Protocol: EAE was induced in C3H.SW female mice (4-6 weeks old, Harlen, Rehovot, Israel) by immunization with the peptide encompassing amino acids 35-55 of rat myelin oligodendrocyte glycoprotein (MOG). Synthesis was carried out by the Weizmann Institute Synthesis Unit, using a solid-phase technique on a peptide synthesizer (Applied Biosystems Inc., Foster City, Calif. City). Mice were injected subcutaneously at one site in the flank with a 200 μl emulsion containing 75 μg MOG peptide in complete Freund's adjuvant (CFA). An identical booster immunization was given at one site of the other flank one week later. Mice (n=16) were injected intraperitonealy with Compound J (200 mg/kg) twice a day and in addition, were given Compound J orally in the drinking water (300 mg/kg) on day 1 of the MOG injection and for additional 35 days post injection. Control mice (n=16) were injected twice a day with 200 mg of saline for the same time period. 0=no clinical symptom's; 1=loss of tail tonicity; 2=partial hind limb paralysis; 3=complete hind limb paralysis; 4=paralysis of four limbs; 5=total paralysis; 6=death.

For `CCOC(=O)[C@H](CS)NC(C)=O` [compound A, N-acetyl cysteine ethyl ester], the “Level of endogenous GSH in striatum” value [1] was “increases”.
In the case of `CC(=O)N[C@@H](CS)C(=O)O` [N-acetyl-cysteine], the “lethal dose 50% (LD50)” value [2] is listed as 5,050 mg/kg.
For `CC(=O)NC(CS)C(N)=O` (centres unmarked) [compound J], the “Protection of NB cells against the toxicity of DA, L-dopa, 6-OHDA (0.1-0.25 mM) and MPP+ (0.5-2 mM)” value [3] was “protect”, the “Compound J in the brain” value [4] was “concentration-dependent increase” and the “GSH levels increase over untreated animals” value (GSH) was “up to 46%”. The “Incidence and clinical severity of the disease” value (MOG-induced EAE) was “markedly reduced”, the “Mice remaining disease free” value (MOG-induced EAE; day 1 to 35 days post injection, n=16) was 15 out of the 16 and the “Mean of total clinical score (0-6 scale)” value (MOG-induced EAE; n=16, SE) was 0.1+0.1.
